The text below walks through data of patent publication US6828111B2, “Three-dimensional in vitro model of human preneoplastic breast disease” (Wayne State University, priority 2000, dated 2004).

“Also recorded” adds a separate entry of the source.

What all share (format): cell-based, human
Test [1] concerns EIII8-HUVEC co-cultures. In words: Heterotypic EIII8-HUVEC 3D Matrigel co-culture, morphology. The conditions noted are these: for inhibition of endothelial sprouting and associated ductal-alveolar morphogenesis: 1 nM E2 plus 100-fold molar excess of antiestrogen, day 5. The source says:
For heterotypic 3D co-cultures, 5×10^4 MCF10A, MCF10AT1, or EIII8 cells were mixed with an equal number of HUVECs, human breast fibroblasts (reduction mammoplasty, benign or tumor-derived), IMR-90, HT1080 or NIH 3T3 cells. For heterotypic tricultures, MCF10A or EIII8 cells were mixed with equivalent numbers of human breast fibroblasts (reduction mammoplasty, benign or tumor-derived) and HUVECs and seeded onto chamber slides coated with Matrigel as described for homotypic cultures. Typically, heterotypic co-cultures were performed in SFM supplemented with EGF and bFGF since this medium results in optimal viability, growth and 3D organization of both HUVEC and MCF10A cells. Typically, heterotypic cultures were performed in SFM supplemented with EGF and bFGF because it allows optimal viability, growth and 3D organization of HUVEC, fibroblasts and MCF10A cells. Heterotypic co-cultures were routinely maintained up to 3 weeks, and morphological development was analyzed by phase contrast microscopy. F To assess growth effects of E2 on homotypic (EIII8) or heterotypic (EIII8-HUVEC) 3D cultures, 5×10^4 EIII8 cells were seeded alone or mixed with an equivalent number of HUVEC in the appropriate medium in 8-well chamber slides coated with Matrigel as described above. Slides were incubated overnight to allow attachment of the cells, and treated with vehicle (0.01% ethanol, v/v), pure antiestrogen ICI 182,780 alone (100 or 1000 nM (Zeneca Pharmaceuticals, […]2 (0.1, 1 or 10 nM; Sigma Chemical Co., St. Louis, Mo.), or a combination of 1 nM E2 and 100- or 1000-fold molar excess of ICI 182,780. Cultures were incubated at 37° C. for 5 days, after which cell viability was measured with the MTS (3-(4,5-dimethylthiazol-2-yl)-5-(3-carboxymethoxyphenyl)-2-(4-sulfophenyl)-2H-tetrazolium) kit according to the manufacturer's directions (Promega Corp, Madison, Wis.).

Test [2] concerns EIII8+38T+HUVEC tricultures. In words: 3D growth of EIII8+38T+HUVEC tricultures, viable cell count. The procedure:
(§1) 3-D cultures were set up by seeding 5×10^4 EIII8, HUVEC, […] or […] (reduction mammoplasty fibroblasts), […] or […] (tumor-derived breast fibroblasts) alone or mixing 5×10^4 EIII8 cells with an equivalent number of […] (or […]) or […] (or […]) in the absence or presence of an equivalent number of HUVEC cells onto chamber slides coated with Matrigel as described above. Cultures were incubated at 37° C. for 6 days, after which the cell viability was measured in the 3-D cultures. The medium was removed, wells were rinsed with phosphate buffered saline, and the Matrigel was digested with dispase for 2 h at 37° C. The digested material was centrifuged at 4000×g for 10 min, and the pellet was treated with trypsin to recover single cells from the 3-D structures. The number of viable cells was determined by trypan blue exclusion in a hemocytometer and results expressed as average±SE from three independent experiments. […]

In test [3] the test system is EIII8+31R+HUVEC tricultures. In words: 3D growth of EIII8+31R+HUVEC tricultures, viable cell count. The conditions noted are these: 1 or 10 nM E2, 6 days, reduction mammoplasty fibroblasts. The protocol: as §1
The subject of the next test is VEGF165. In words: Western blot of VEGF165 in culture media of EIII8-HUVEC 3D cultures. The procedure: (§2) 5×10^4 EIII8 or MCF10A cells were seeded alone or mixed with an equivalent number of HUVEC on Matrigel in SFM media as described above. Cells were incubated for 6 h to attach and the medium was replaced with fresh SFM. After appropriate incubation, the culture media from homotypic and heterotypic co-cultures were collected, centrifuged to remove debris and stored at −20° C. Following removal of culture medium, matrix containing the 3D structures was either solubilized for SDS-PAGE and Western blot analysis or fixed in buffered formalin for evaluation of morphology and distribution of functional markers. Analysis of expression of VEGF, IL-8, Estrogen receptor (ER) and Flk-1/KDR proteins was carried out by Western analysis with specific antibodies. […] The following antibodies to human proteins were used: (1) rabbit polyclonal anti-VEGF antisera (recognizes C-terminal epitope of VEGF165, VEGF189 and VEGF206; Oncogene Science), mouse anti-ER mAb (Clone 1D5; reacts with the N-terminal domain or A/B region of the ER; Dako Corp., Carpenteria, Calif.), mouse anti-Flk-1/KDR mAb (Chemicon International, Inc.) and goat polyclonal anti-IL-8 antibody (R&D Systems). Immunoreactive bands were visualized by chemiluminescence, and band intensities were quantitated with a Model 300A densitometer (Molecular Dynamics, Sunnyvale, Calif.).
(Immunoblotting shows a protein as a band on a membrane.)

The subject of the next test is MCF10A-HUVEC co-cultures. Nature of the test: Heterotypic MCF10A-HUVEC 3D Matrigel co-culture, morphology. The source says:
For heterotypic 3D co-cultures, 5×10^4 MCF10A, MCF10AT1, or EIII8 cells were mixed with an equal number of HUVECs, human breast fibroblasts (reduction mammoplasty, benign or tumor-derived), IMR-90, HT1080 or NIH 3T3 cells. For heterotypic tricultures, MCF10A or EIII8 cells were mixed with equivalent numbers of human breast fibroblasts (reduction mammoplasty, benign or tumor-derived) and HUVECs and seeded onto chamber slides coated with Matrigel as described for homotypic cultures. Typically, heterotypic co-cultures were performed in SFM supplemented with EGF and bFGF since this medium results in optimal viability, growth and 3D organization of both HUVEC and MCF10A cells. Typically, heterotypic cultures were performed in SFM supplemented with EGF and bFGF because it allows optimal viability, growth and 3D organization of HUVEC, fibroblasts and MCF10A cells. Heterotypic co-cultures were routinely maintained up to 3 weeks, and morphological development was analyzed by phase contrast microscopy. F

For a further test, the system named is EIII8 cells. In words: Homotypic EIII8 3D Matrigel culture, phase contrast morphology.
Test [4] relates to EIII8-HUVEC co-cultures. In words: 3D growth of EIII8-HUVEC cultures by MTS assay and trypan blue counts. The procedure: To assess growth effects of E2 on homotypic (EIII8) or heterotypic (EIII8-HUVEC) 3D cultures, 5×10^4 EIII8 cells were seeded alone or mixed with an equivalent number of HUVEC in the appropriate medium in 8-well chamber slides coated with Matrigel as described above. Slides were incubated overnight to allow attachment of the cells, and treated with vehicle (0.01% ethanol, v/v), pure antiestrogen ICI 182,780 alone (100 or 1000 nM (Zeneca Pharmaceuticals, […]2 (0.1, 1 or 10 nM; Sigma Chemical Co., St. Louis, Mo.), or a combination of 1 nM E2 and 100- or 1000-fold molar excess of ICI 182,780. Cultures were incubated at 37° C. for 5 days, after which cell viability was measured with the MTS (3-(4,5-dimethylthiazol-2-yl)-5-(3-carboxymethoxyphenyl)-2-(4-sulfophenyl)-2H-tetrazolium) kit according to the manufacturer's directions (Promega Corp, Madison, Wis.). Measurements were made from triplicate sets of wells for each treatment. Background absorbance was corrected by preparing triplicate sets of wells containing only Matrigel (“no cell”) and the same volume of medium and MTS reagent as in experimental wells. Average absorbances from “no cell” wells were subtracted from sample absorbance values containing cells to yield corrected absorbance, and the results represent the average±S.E. of triplicate samples. Each experiment was repeated at least three times. Since the MTS assays performed here differs from routine MTS assays in that they are done on 3D cultures growing in Matrigel rather than monolayers, results of MTS assays were validated by performing direct cell counts of viable cells in the 3D cultures. For this, the medium was removed, wells rinsed with PBS, and Matrigel was digested with dispase for 2 h at 37° C. The digested material was centrifuged at 4000×g for 10 min, and the pellet treated with trypsin to recover single cells from the 3D tubular structures. The number of viable cells was determined by trypan blue exclusion in a hemocytometer. Results were expressed as mean±S.E. from three independent experiments.
For orientation: Formazan colour is commonly taken as a measure of viable cells.

For another test, the system named is Flk-1/KDR. Nature of the test: Western blot of Flk-1/KDR in matrix fractions of EIII8-HUVEC 3D cultures. The note with it: for regulation of Flk-1/KDR protein levels: 10-day old co-cultures. The protocol: (§3) 5×10^4 EIII8 or MCF10A cells were seeded alone or mixed with an equivalent number of HUVEC on Matrigel in SFM media as described above. Cells were incubated for 6 h to attach and the medium was replaced with fresh SFM. After appropriate incubation, the culture media from homotypic and heterotypic co-cultures were collected, centrifuged to remove debris and stored at −20° C. Following removal of culture medium, matrix containing the 3D structures was either solubilized for SDS-PAGE and Western blot analysis or fixed in buffered formalin for evaluation of morphology and distribution of functional markers.
Analysis of expression of VEGF, IL-8, Estrogen receptor (ER) and Flk-1/KDR proteins was carried out by Western analysis with specific antibodies. Aliquots of unconcentrated conditioned media or lysates of 3D cultures containing 20 or 40 μg total protein, respectively, were collected after indicated culture intervals, separated by SDS-PAGE on 12.5% (VEGF), 17% (IL-8) or 7% (ER and Flk-1/KDR) polyacrylamide gels (Laemmli, UK, Nature 227:680-685, 1970), and subjected to Western blot analysis. The following antibodies to human proteins were used: (1) rabbit polyclonal anti-VEGF antisera (recognizes C-terminal epitope of VEGF165, VEGF189 and VEGF206; Oncogene Science), mouse anti-ER mAb (Clone 1D5; reacts with the N-terminal domain or A/B region of the ER; Dako Corp., Carpenteria, Calif.), mouse anti-Flk-1/KDR mAb (Chemicon International, Inc.) and goat polyclonal anti-IL-8 antibody (R&D Systems). Immunoreactive bands were visualized by chemiluminescence, and band intensities were quantitated with a Model 300A densitometer (Molecular Dynamics, Sunnyvale, Calif.).

For the next test, the system named is IL-8. In words: Western blot of IL-8 in culture media of EIII8-HUVEC 3D cultures. The protocol:
as §2

In test [5] the test system is wild type ER protein (67 kDa). In words: Western blot of ER in matrix fractions of EIII8-HUVEC 3D cultures. The note with it: 100-fold molar excess over E2, day 5; 42 kDa ER-reactive protein appears. The procedure:
as §3
Analysis of expression of VEGF, IL-8, Estrogen receptor (ER) and Flk-1/KDR proteins was carried out by Western analysis with specific antibodies. Aliquots of unconcentrated conditioned media or lysates of 3D cultures containing 20 or 40 μg total protein, respectively, were collected after indicated culture intervals, separated by SDS-PAGE on 12.5% (VEGF), 17% (IL-8) or 7% (ER and Flk-1/KDR) polyacrylamide gels (Laemmli, UK, Nature 227:680-685, 1970), and subjected to Western blot analysis. […] Immunoreactive bands were visualized by chemiluminescence, and band intensities were quantitated with a Model 300A densitometer (Molecular Dynamics, Sunnyvale, Calif.).

With `CC/C(=C(\c1ccc(O)cc1)c1ccc(OCCN(C)C)cc1)c1ccccc1` [4(OH) tamoxifen], the “inhibition of endothelial sprouting and associated ductal-alveolar morphogenesis” value in the test with EIII8-HUVEC co-cultures [1] is recorded as “dramatic inhibition”.

Regarding `C[C@]12CC[C@@H]3c4ccc(O)cc4CC[C@H]3[C@@H]1CC[C@@H]2O` [E2, 17 β-estradiol], the “increase in triculture growth” value in [2] (apparent only with 10 nM E2, 6 days, p<0.03) was “marginal increase”. For the same compound, the “stimulation of triculture growth” value in [3] is “failed to stimulate growth”. The “increase in VEGF165 levels over control cultures” value in the test with VEGF165 (1 nM E2, day 5, densitometry) worked out at 4 fold; in the test on VEGF165 (1 nM E2, day 10, densitometry) it was 8 fold. In addition, the “influence on growth and proliferation of endothelial or epithelial cells” value in the test with MCF10A-HUVEC co-cultures (addition of E2 (1 nM), day 5) is on record as “no significant influence”. The “effect on EIII8 3D tubular structures (tube thickening, central spaces, connecting bridges)” value with EIII8 cells (1 or 10 nM E2, 5 days, vs control cultures) was “marked thickening of tubes; also recorded: induce formation of several new central spaces and connecting bridges”. The “increase in growth over control cultures” value with EIII8-HUVEC co-cultures [4] (10 nM E2, day 5, p<0.01) is 2 fold. Besides, the “concentrations giving dose dependent induction of growth” value in the test on EIII8-HUVEC co-cultures [4] (day 5, MTS and trypan blue assays) is given as greater than 1 nM. For the same compound, the “levels of Flk-1/KDR protein, E2-treated vs control” value in the test with Flk-1/KDR (1 nM E2, 5 day-old cultures) is “equally up-regulated”. Moreover, the “regulation of Flk-1/KDR protein levels” value in the test with Flk-1/KDR is “no longer regulated”. The “regulation of IL-8 expression” value with IL-8 (1 nM E2, days 5 and 10) was “did not appear to regulate IL-8 expression”. In addition, the “growth of endothelial cell-enriched spots and ductal-alveolar outgrowths” value in the test on EIII8-HUVEC co-cultures [1] (1 nM E2, 5-day co-cultures, vs control) was “enhanced”.

For `C[C@]12CC[C@@H]3c4ccc(O)cc4C[C@@H](CCCCCCCCC[S+]([O-])CCCC(F)(F)C(F)(F)F)[C@H]3[C@@H]1CC[C@@H]2O` (some centres unmarked) [ICI 182,780], the “inhibition of growth in vehicle- and E2-treated cultures” value in [2] (100 nM ICI 182,780 alone or with 1 nM E2, 6 days, p<0.001) was “significantly inhibited; also recorded: significantly decreased”. For the same compound, the “E2-stimulated VEGF165 levels” value in the test with VEGF165 (ICI 182,780 at 100-fold molar excess over 1 nM E2) is listed as “returned to control levels”. Further, the “formation of endothelial cell-enriched spots / endothelial cell growth” value with MCF10A-HUVEC co-cultures (1 nM E2 plus 100-fold molar excess ICI 182,780, day 5, MCF10A epithelium maintained) was “abolished; also recorded: specific inhibition”. Besides, in the test with EIII8 cells (1 nM E2 plus 100-fold molar excess of antiestrogen, 5 days), the “blocking of E2-induced effects on EIII8 3D structures (epithelial multilayering)” value was “blocked; also recorded: significantly inhibits”. Moreover, the “amount of wild type ER” value in [5] is given as “significantly reduced”. Further, in the test on EIII8-HUVEC co-cultures [4] (100-fold molar excess over 1 nM E2, day 5, p<0.001), the “effect on growth promoting effects of E2” value is given as “abolished”. Also, the “regulation of Flk-1/KDR protein levels” value in the test on Flk-1/KDR is given as “no longer regulated”. Also, in the test with Flk-1/KDR (100-fold molar excess, 5-day old cultures), the “reduction in Flk-1/KDR protein levels” value was “about 80%”. In addition, the “effect on IL-8 levels” value with IL-8 (100-fold molar excess over 1 nM E2, days 5 and 10) is on record as “no effect”. Moreover, the “inhibition of endothelial sprouting and associated ductal-alveolar morphogenesis” value with EIII8-HUVEC co-cultures [1] is on record as “dramatic inhibition; also recorded: specific inhibition”.
